In patent US4192889A, “Ruminant feeds containing trichloroethyl esters of essential amino acids” (E. R. Squibb & Sons, Inc., priority 1979, dated 1980):

Assays:
[1] = test system: volatile fatty acid concentrations in the in vitro rumen fermentation; assay: in vitro rumen fermentation, volatile fatty acids (alfalfa hay:concentrate 3:1); design: species or system sheep; conditions: for Acetic / Acetic Propionic (ratio) / Propionic / Total Acids / butyric: Table 10, 0.2 mg/ml
Excerpt: Based on the knowledge of the foregoing, a practical method of testing growth promoters in vitro has been the simulation of conditions in the rumen with fermentation reactions. Such a method comprises adding the test substance to a substrate such as ground hay, corn or mixtures of feed materials. Rumen fluid from a fasted ruminant (bovine, ovine, or caprine) is mixed with a buffer solution and added to a fermentation flask containing the test additive and the substrate. The flask is purged of oxygen, stoppered with a pressure release valve, and incubated at 39°±1° C. for periods up to 48 hours. The change in volatile fatty acid concentration is determined by chemical analysis of the rumen fluid before and after fermentation. As a control, the above experiment is run without a test additive.
(§1) A one gram sample of substrate ground through a 1 mm screen is weighted into 100 ml. lipless beakers equipped with gas-release valves. The substrate consists of alfalfa hay containing approximately 16% protein and a concentrate containing ground corn 60.7%, alfalfa meal 17.5%, molasses 10.0%, soybean meal 5.3%, wheat bran 5.0%, trace mineralized salt 1.0%, limestone 0.5% and Vitamin D 300,000 I.U./ton, mixed in the proportion 3:1. The experimental composition is added to the substrate. 25 ml. of filtered rumen fluid obtained from fasted sheep maintained on feed the same as the above mentioned substrate and 25 ml. of McDougal's buffer solution serve as the inoculum. The buffer solution is as follows:
(§2) The fermentation mixture is flushed with carbon dioxide and the vessel is capped with a gas release valve. The fermentation vessel (beaker) is placed in a water bath and incubated at 39° C.±1° for six hours. The sample is mixed every hour by shaking the beaker.
(§3) At the end of the 6-hour fermentation period the sample is strained through 4 layers of cheesecloth into a sample bottle containing 1 ml. saturated solution of mercuric chloride. The sample is frozen immediately until analyzed for the volatile fatty acids (VFA) (mg/100 ml.). Prior to analysis, each sample is acidified with 30% phosphoric acid and then analyzed by gas chromatography using a column containing 5% nonylphenoxypolyoxyethylene ethanol plus 0.5% phosphoric acid on 100-120 mesh Gas Chrom S. The acids determined are acetic, propionic, butyric, isobutyric, valeric and isovaleric acids. Total VFA is considered as the addition of these acids. The ratio of acetic:propionic (A:P) is obtained by dividing the concentration of acetic acid by that of propionic acid.
The effect of various compounds alone on the volatile fatty acid concentrations was determined by the procedure of Example 3. […] A direct comparison between phenylalanine and phenylalanine trichloroethyl ester is provided.

[2] = test system: volatile fatty acid concentrations in fistulated sheep; assay: volatile fatty acid concentrations in vivo in sheep with rumen fistulae (227 g concentrate + 680 g alfalfa hay); design: species or system sheep (wethers); conditions: for acetic:propionic ratio (in words) / proportion of propionic acid (in words): fistulated sheep; for Total acids (mg/100 ml.): Table 3, treatment day 7
Excerpt: (§4) Mature sheep (wethers) fitted with permanent rumen fistulae were used to determine the effect of L-phenylalanine, 2,2,2-trichloroethyl ester on volatile fatty acid concentrations in vivo (3 wethers per treatment). The animals were individually penned and fed 227 g. of concentrate (described in Example 3) and 680 g. of alfalfa hay once daily. The test compound was admixed with the concentrate. The sheep were medicated for 7 days. Samples for analysis were obtained before (Day 0) and after treatment (Day 7) approximately 6 hours after feeding.

[3] = test system: volatile fatty acid concentrations in the in vitro rumen fermentation; assay: in vitro rumen fermentation, volatile fatty acids (high concentrate substrate, alfalfa hay:concentrate 1:3); design: species or system sheep
Protocol: as §1, §2, §3
The procedure is described in Example 3. In this example, however, the substrate consisted of alfalfa hay and concentrate in the ratio of 1:3 and inoculum was obtained from sheep fed alfalfa and concentrate in the ratio of 1:3. The concentrate (Fit-N-Fresh)is commercially available from Agway, Inc. and contains grain products, plant protein products, processed grain by-products, cane molasses, minerals, vitamins and a preservative.
The 2,2,2-trichloroethyl ester of glycine was tested in vitro in a manner similar to that described in Example 4.

[4] = body weight gain and feed efficiency of growing lambs; type: in vivo, lambs (wether and ewe)
Protocol: A test was conducted to determine if feeding L-phenylalanine 2,2,2-trichloroethyl ester to growing lambs was effective in improving growth and feed efficiency. Wether and ewe lambs were divided into groups of 30 lambs each. They were acclimated to their pens for 2 weeks prior to treatment.
The feed supplied to the animals had the following composition
The test compound in an amount of 0.0055% (50 g/ton) was admixed with the above feed composition.
Body weights and feed consumption were recorded at 0, 2, 4 and 6 weeks. Feed efficiencies were calculated.
The test procedure of Example 9 was followed to test the growth effect and feed efficiency of glycine 2,2,2-trichloroethyl ester on growing lambs. The feed composition of Example 9 was used but contained glycine 2,2,2-trichloroethyl ester in an amount of 0.0044% (40 g/ton). There were 44 lambs in the control group receiving the feed composition without additive and 42 lambs receiving the feed composition containing the amino acid ester.
The test procedure of Example 9 was followed to test the growth effect and feed efficiency of L-phenylalanine 2,2,2-trichloroethyl ester on growing lambs. The feed composition of Example 9 was used but contained 0.0088% (80 g/ton) of this amino acid ester. There were 59 lambs in the control group fed the feed without additive and 58 lambs in the group fed the feed composition containing the test compound.

[5] = test system: volatile fatty acid concentrations in the rumen of fistulated wethers; assay: volatile fatty acid concentrations in the rumen of fistulated wethers (454 g concentrate + 454 g chopped mixed hay); type: in vivo, sheep (wethers); conditions: for Total acids (mg/100 ml): Table 4, treatment day 7
Excerpt: as §4
An experiment similar to that described in Example 5 was performed except that the animals (3 per treatment) were fed 454 g. of concentrate (described in Example 3) and 454 g. of chopped mixed (grasses) hay.

[6] = fistulated wethers, concentrate/mixed hay diet

| SMILES | Acetic [1] | Acetic Propionic (ratio) [1] | Propionic [1] | Total Acids [1] | butyric [1] | acetic:propionic ratio (in words) [2] | proportion of propionic acid (in words) [2] | acetic:propionic ratio (in words) [3] | propionic acid concentration (in words) [3] | further results |
| --- | --- | --- | --- | --- | --- | --- | --- | --- | --- | --- |
| N[C@@H](Cc1ccc(Cl)cc1)C(=O)O (racemic) [p-chlorophenylalanine] | 91 % of Control | 101 % of Control | 91 % of Control | 91 % of Control | 92 % of Control | – | – | – | – | – |
| NCC(=O)OCC(Cl)(Cl)Cl [2,2,2-trichloroethyl ester of glycine, aminoacetic acid 2,2,2-trichloroethyl ester] | – | – | – | – | – | decreasing the acetic:propionic ratio | effective in increasing the proportion of propionic acid | decreasing the acetic:propionic ratio | effective in increasing propionic acid concentration | Total acid (mg/100 ml) ([2]; Table 6, 500 mg/head/day, treatment): 731 mg/100 ml; Weight gain ([4]; Table 8, 0.0044% (40 g/ton) in feed, 0-2 wks, control 2.32): 2.31 kg; Weight gain ([4]; Table 8, 0.0044% (40 g/ton) in feed, 0-4 wks, control 5.09): 5.13 kg; Feed efficiency gain/feed ([4]; Table 8, 0.0044% (40 g/ton) in feed, 0-6 wks, control 0.148): 0.154 gain/feed; Weight gain ([4]; Table 8, 0.0044% (40 g/ton) in feed, 0-6 wks, control 7.18): 7.37 kg |
| N[C@@H](Cc1ccccc1)C(=O)OCC(Cl)(Cl)Cl [L-Phenylalanine 2,2,2-trichloroethyl ester] | – | – | – | – | – | decreased the acetic:propionic ratio | increased the proportion of propionic acid | decreasing the acetic:propionic ratio | effective in increasing the propionic acid concentration | Total acids (mg/100 ml.) ([2]; 200 mg/head/day): 667 mg/100 ml.; Total acids (mg/100 ml.) ([2]; 500 mg/head/day): 624 mg/100 ml.; acetic to propionic acid ratio (in words) ([1]; at all levels): decreasing the acetic to propionic acid ratio; propionic acid concentrations (in words) ([1]; at all levels): effective in increasing the propionic acid concentrations; Total acids (mg/100 ml) ([5]; 200 mg/head/day): 663 mg/100 ml; Total acids (mg/100 ml) ([5]; 500 mg/head/day): 734 mg/100 ml; acetic:propionic ratio (in words) [5, 6]: decreasing the acetic:propionic ratio; proportion of propionic acid (in words) [5, 6]: effective in increasing the proportion of propionic acid; feed efficiency of growing lambs (in words) ([4]; 0.0055% (50 g/ton) in the feed): improving feed efficiency; gains of growing lambs (in words) ([4]; 0.0055% (50 g/ton) in the feed): effective in increasing gains; Body weight gain ([4]; Table 7, 0.0055% (50 g/ton) in feed, 0-2 wks., control 2.47): 2.97 kg; Body weight gain ([4]; Table 7, 0.0055% (50 g/ton) in feed, 0-4 wks., control 5.80): 5.82 kg; Body weight gain ([4]; Table 7, 0.0055% (50 g/ton) in feed, 0-6 wk., control 8.51): 9.08 kg; Feed efficiency (gain/unit of feed) ([4]; Table 7, 0.0055% (50 g/ton) in feed, 0-6 wks., control 0.190): 0.196 gain/unit of feed; Weight gain ([4]; Table 9, 0.0088% (80 g/ton) in feed, 0-2 wks, control 1.50): 1.49 kg; Weight gain ([4]; Table 9, 0.0088% (80 g/ton) in feed, 0-4 wks, control 4.44): 4.63 kg; Feed efficiency gain/feed ([4]; Table 9, 0.0088% (80 g/ton) in feed, 0-6 wks, control 0.160): 0.168 gain/feed; Weight gain ([4]; Table 9, 0.0088% (80 g/ton) in feed, 0-6 wks, control 7.56): 7.81 kg |
| N[C@@H](Cc1ccccc1)C(=O)O [L-phenylalanine] | 95 % of Control | 100 % of Control | 94 % of Control | 96 % of Control | 97 % of Control | – | – | – | – | – |
| O=CC(Cl)(Cl)Cl [chloral] | 88 % of Control | 80 % of Control | 110 % of Control | 96 % of Control | 110 % of Control | – | – | – | – | – |
